From PMC3750255, “Inhibition of Mycoplasma pneumoniae growth by FDA-approved anticancer and antiviral nucleoside and nucleobase analogs” (BMC Microbiology, 2013)
≈ marks a conversion by molar mass, not a printed value.

What was measured:
[1] = tested on: M. pneumoniae wild type (laboratory strain M129); assay: Mpn growth inhibition in 96-well plates (growth index A450/A560), wild type strain; type: cell-based, Mycoplasma pneumoniae; details: for MIC (Mpn growth): as stated in the text, strain not specified, 90% growth inhibition
Procedure: (§1) A series dilution of each compound in Mycoplasma growth medium was added to Mpn cultures in 96-well plates. The plates were sealed and incubated at 37°C. Mpn growth was monitored by using growth index value e.g. the ratio of absorbance at 450 nm and 560 nm of the culture medium. Thirty nucleoside and nucleobase analogs and a nucleoside transporter inhibitor were included, and two Mpn strains, wild type and a thyA mutant (lacking TS activity), were used.
(§2) Nucleoside and nucleobase analogs were dissolved in dimethyl sulfoxide (DMSO) as stock solutions and diluted with Mpn culture medium to the desired concentration immediately prior to use.
(§3) Mpn laboratory strain M129 wild type and a thyA mutant strain [31] were used in this study. Mpn was cultured at 37°C in a CO2 incubator using 75 cm^2 tissue culture flasks containing 50 ml Hayflick’s medium, and harvested at day 4 when the medium color change was observed. The cells were harvested and the pellet was resuspended in 6 ml fresh medium and the cfu/ml was determined by serial dilution (10-fold) and plating on broth agar plate. Colonies was counted and cfu/ml was calculated.
(§4) Inhibition studies were performed in 96-well plates containing 200 μl Mpn culture (approximately 10^6 cfu ml^-1) in Hayflick’s medium and 200 μl each compound in series dilutions (2-fold) with the growth medium, with three to four replicas. The plates were sealed with clear adhesive sheets and incubated at 37°C incubator. Absorbance ratio at 450 nm and 560 nm was used as Mpn growth index, which was measured daily, and by visual detection for at least 8 days, as previously described. […] The MICs (minimal inhibitory concentration required to inhibit Mpn growth to 90%) were determined as the lowest concentration at which the growth index was ≈ 10% of the control values (at the time when the control culture medium color turned yellow), essentially as described.

[2] = target: T1, TK in Mpn extracts (Mycoplasmoides pneumoniae, UniProt P75070); assay: Inhibition of dT phosphorylation in Mpn protein extracts; type: biochemical; details: 10 μM tritium labelled thymidine; read-out: IC50 Mpn extracts
T1 construct: endogenous in cells; host or cells: Mycoplasma pneumoniae M129 total protein extract
T1 sequence (P75070 1-191): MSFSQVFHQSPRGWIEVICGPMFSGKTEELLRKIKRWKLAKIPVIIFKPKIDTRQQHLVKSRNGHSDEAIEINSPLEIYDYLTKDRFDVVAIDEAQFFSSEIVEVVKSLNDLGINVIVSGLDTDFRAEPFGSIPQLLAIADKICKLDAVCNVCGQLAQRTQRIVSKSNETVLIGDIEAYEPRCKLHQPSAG
Procedure: Both TFT and 5FdU are substrates of Mycoplasma and human TKs, as described above and earlier studies.
Thymidine kinase assay was performed using tritium labelled thymidine ([^3H]-dT) as substrate and various concentrations of the inhibitors essentially as previously described to determine the IC50 values of TFT and 5FdU.

[3] = tested on: M. pneumoniae thyA mutant (lacking TS activity); assay: microbe, parasite or virus in culture; type: cell-based, Mycoplasma pneumoniae; details: minimal concentration producing 90% inhibition; thyA mutant Mpn
Procedure: as §1, §2, §3, §4

Structure (SMILES): O=c1[nH]c(=O)n([C@H]2C[C@H](O)[C@@H](CO)O2)cc1C(F)(F)F [Trifluorothymidine (TFT), Trifluorothymidine]
- MIC (Mpn growth) ([1]; listed as trifluorothymidine): approximately 2 μg ml^-1
- MIC (Mpn growth) ([1]; listed as trifluorothymidine (TFT)): 1.8 µg/mL (≈ 6.08 µM)
- Wild type MIC ([1]; minimal concentration producing 90% inhibition, wild type Mpn): 1.8 µg/mL
- IC50 [2]: 9.1 ± 2.9 µM
- thyA mutant MIC [3]: 1.8 µg/mL
